25 compounds from ChEMBL document CHEMBL2417422, “Modulation of human neutrophils' oxidative burst by flavonoids” (Eur J Med Chem, 2013) can be followed below.

In data set [1] the test system is Neutrophil. Briefly: Inhibition of oxidative burst in PMA-stimulated human neutrophils assessed as inhibition of ROS-induced luminol oxidation up to 100 uM incubated for 5 mins prior to PMA challenge by chemiluminescence assay. The data set is classed as functional.
The subject of data set [2] is Neutrophil. Briefly: Inhibition of oxidative burst in PMA-stimulated human neutrophils assessed as inhibition of HOCl-induced oxidation of APF after 6 mins by fluorescence assay. The class given is functional, cell-based. To be noted: 0.1 h.
The subject of data set [3] is Neutrophil. Briefly: Inhibition of oxidative burst in PMA-stimulated human neutrophils assessed as inhibition of H2O2-induced oxidation of amplex red incubated for 5 mins prior to PMA challenge by fluorescence assay. The data set is classed as functional, cell-based.
Data set [4] relates to Neutrophil. Briefly: Inhibition of oxidative burst in PMA-stimulated human neutrophils assessed as inhibition of superoxide anion radical-induced lucigenin oxidation incubated for 5 mins prior to PMA challenge by chemiluminescence assay. The class given is functional, cell-based.
Data set [5] can be described thus: Cytotoxicity against human neutrophils assessed as cell viability at 100 uM after 1 hr by trypan blue exclusion assay. The following applies: read-out: Activity. The data set is classed as cell-based, Neutrophil.
For data set [6], the system named is Neutrophil. Briefly: Inhibition of oxidative burst in PMA-stimulated human neutrophils assessed as inhibition of HOCl-induced oxidation of APF up to 100 uM after 6 mins by fluorescence assay. The data set is classed as functional, cell-based.
The test system of data set [7] is Neutrophil. The data set can be described thus: Inhibition of oxidative burst in PMA-stimulated human neutrophils assessed as inhibition of ROS-induced luminol oxidation incubated for 5 mins prior to PMA challenge by chemiluminescence assay. The class given is functional, cell-based.
In data set [8] the test system is Neutrophil. The data set can be described thus: Inhibition of oxidative burst in PMA-stimulated human neutrophils assessed as inhibition of H2O2-induced oxidation of amplex red up to 100 uM incubated for 5 mins prior to PMA challenge by fluorescence assay. The class given is functional.
In data set [9] the test system is Neutrophil. The data set can be described thus: Inhibition of oxidative burst in PMA-stimulated human neutrophils assessed as inhibition of H2O2-induced oxidation of amplex red at 40 uM incubated for 5 mins prior to PMA challenge by fluorescence assay. The class given is functional.
Data set [10] deals with T1, Myeloperoxidase (Homo sapiens) (UniProt P05164).
T1 sequence (whole entry): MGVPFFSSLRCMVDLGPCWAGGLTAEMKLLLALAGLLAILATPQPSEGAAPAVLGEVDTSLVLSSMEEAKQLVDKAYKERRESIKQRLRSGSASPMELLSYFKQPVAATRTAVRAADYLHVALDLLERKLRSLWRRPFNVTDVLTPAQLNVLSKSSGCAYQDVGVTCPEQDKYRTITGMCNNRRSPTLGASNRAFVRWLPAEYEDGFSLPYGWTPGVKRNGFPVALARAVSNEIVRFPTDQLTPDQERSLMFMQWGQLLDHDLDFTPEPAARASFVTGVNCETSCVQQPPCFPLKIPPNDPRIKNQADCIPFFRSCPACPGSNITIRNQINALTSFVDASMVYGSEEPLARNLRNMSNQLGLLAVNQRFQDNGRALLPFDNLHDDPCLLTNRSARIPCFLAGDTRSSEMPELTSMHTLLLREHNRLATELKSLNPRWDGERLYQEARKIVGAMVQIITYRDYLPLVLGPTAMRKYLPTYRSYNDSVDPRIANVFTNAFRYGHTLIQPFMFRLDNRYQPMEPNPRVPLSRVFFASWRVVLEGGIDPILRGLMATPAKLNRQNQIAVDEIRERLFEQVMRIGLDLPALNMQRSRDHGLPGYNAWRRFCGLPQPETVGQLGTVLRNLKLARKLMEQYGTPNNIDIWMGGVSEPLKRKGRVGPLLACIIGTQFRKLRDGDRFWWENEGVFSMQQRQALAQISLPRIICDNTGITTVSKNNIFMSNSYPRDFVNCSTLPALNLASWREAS
Briefly: Inhibition of MPO (unknown origin). The following applies: concentration not given here.

For data set [11], the system named is Neutrophil. Briefly: Inhibition of oxidative burst in PMA-stimulated human neutrophils assessed as inhibition of superoxide anion radical-induced lucigenin oxidation up to 100 uM incubated for 5 mins prior to PMA challenge by chemiluminescence assay. The class given is functional.
Data set [12] deals with Neutrophil. Briefly: Inhibition of oxidative burst in PMA-stimulated human neutrophils assessed as inhibition of ROS-induced luminol oxidation at 25 uM incubated for 5 mins prior to PMA challenge by chemiluminescence assay. The data set is classed as functional.

Active and inactive are the calls of the source. The calls are words filed in the database; no cut-off is given here. Bounds are passed on as bounds.

By IC50 is commonly meant the concentration at which inhibition is half-maximal. What is called inhibition is how much of the control response was suppressed. In the case of `O=c1cc(-c2ccccc2)oc2ccccc12` [FLAVONE], the “inhibition (INH)” value in the data set with Neutrophil [1] is recorded as less than 40%. Besides, the concentration for half-maximal inhibition (IC50) in the data set on Neutrophil [2] was found to be 64.9 µM; in the data set with Neutrophil [4], 57 µM. In addition, the inhibition entry in the data set with Neutrophil [3] is “inactive”. Also, the viability at 1 h, 100 µM in data set [5] was greater than 98%.
With `O=c1cc(-c2ccccc2)oc2cc(O)cc(O)c12` [CHRYSIN], the inhibition result in the data set on Neutrophil [6] and in the data set with Neutrophil [3] was “inactive” throughout. The values for the concentration for half-maximal inhibition (IC50) with Neutrophil [4] and with Neutrophil [7] were 9.59 µM and 53 µM, respectively. Besides, the viability at 1 h, 100 µM in data set [5] is greater than 98%.
As for `O=c1cc(-c2cccc(O)c2)oc2ccccc12`, the “inhibition (INH)” value with Neutrophil [8] was less than 40%. Also, in the data set with Neutrophil [9], the inhibition at 40 µM worked out at 17%. For the same compound, the IC50 in the data set on Neutrophil [4] was 47 µM; in the data set on Neutrophil [7], 24 µM. In [5], the viability at 1 h, 100 µM is greater than 98%.
Consider `O=c1cc(-c2ccc(O)c(O)c2)oc2cccc(O)c12`, for which the IC50 was found to be 0.39 µM with Neutrophil [2], 3.2 µM with Neutrophil [3], 4.9 µM with Neutrophil [4] and 1.6 µM in the data set with Neutrophil [7]. The viability at 1 h, 100 µM in data set [5] is greater than 98%.
Regarding `O=c1cc(-c2ccc(O)c(O)c2)oc2cc(O)cc(O)c12` [LUTEOLIN], the half-inhibitory concentration (IC50) in the data set with Neutrophil [2] came out at 0.9 µM; in the data set on Neutrophil [3], 4 µM; with Neutrophil [4] it was 9.5 µM; with Neutrophil [7], 9.3 µM. In [5], the viability at 1 h, 100 µM was greater than 98%.
Take `COc1ccc(-c2cc(=O)c3c(O)cc(O)cc3o2)cc1OC`: the IC50 in the data set on Neutrophil [2] is 3.33 µM; in the data set with Neutrophil [4] it was 16 µM; in the data set on Neutrophil [7], 57.6 µM. Also, the “inhibition (INH)” value with Neutrophil [8] is reported as less than 40%. Further, in data set [5], the viability at 1 h, 100 µM is greater than 98%.
Turning to `NNC(=O)c1ccc(N)cc1`, the IC50 is 30.6 µM in the data set with Neutrophil [2] and 43.6 µM with Neutrophil [7].
Take `O=c1cc(-c2ccc(O)c(O)c2)oc2ccccc12`: the 50% inhibitory concentration (IC50) in the data set with Neutrophil [2] is 0.9 µM; in the data set with Neutrophil [3], 3.2 µM; in the data set with Neutrophil [4], 8.1 µM; with Neutrophil [7] it was 3 µM. Moreover, the viability at 1 h, 100 µM in data set [5] was greater than 98%.
Consider `O=C1CC(c2ccc(O)c(O)c2)Oc2cc(O)cc(O)c21` (racemic), for which the inhibition in data set [10] was found to be 40%. Besides, the IC50 with Neutrophil [2] was found to be 1.4 µM; with Neutrophil [3] it was 4 µM; with Neutrophil [4], 15.5 µM; in the data set on Neutrophil [7], 18 µM. The viability at 1 h, 100 µM in data set [5] was greater than 98%.
As for `O=C1c2c(O)cc(O)cc2O[C@H](c2ccc(O)c(O)c2)[C@H]1O` [(+)-TAXIFOLIN], the inhibition in data set [10] worked out at 40%. Further, the concentration for half-maximal inhibition (IC50) worked out at 15.3 µM in the data set with Neutrophil [2], 41.3 µM with Neutrophil [3], 15.5 µM in the data set on Neutrophil [4] and 53.5 µM in the data set on Neutrophil [7]. The viability at 1 h, 100 µM in data set [5] is greater than 98%.
Turning to `O=c1cc(-c2ccc(O)cc2)oc2ccccc12`, the inhibition entry with Neutrophil [3] was “inactive”. Besides, the “inhibition (INH)” value in the data set with Neutrophil [11] is given as less than 40%. Moreover, the 50% inhibitory concentration (IC50) in the data set on Neutrophil [7] turned out to be 40.3 µM. The viability at 1 h, 100 µM in [5] is greater than 98%.
In the case of `O=c1cc(-c2ccccc2)oc2cccc(O)c12` [5-HYDROXYFLAVONE], the “inhibition (INH)” value in the data set with Neutrophil [1] is listed as less than 40%. Moreover, the inhibition result in the data set with Neutrophil [3] is “inactive”. Also, in the data set on Neutrophil [4], the IC50 came out at 96 µM. Moreover, the inhibition at 25 µM in the data set with Neutrophil [12] turned out to be 30.1%. Moreover, the viability at 1 h, 100 µM in data set [5] is greater than 98%.
As to `O=c1cc(-c2ccc(O)cc2)oc2cc(O)cc(O)c12` [APIGENIN], the IC50 amounted to 12.3 µM with Neutrophil [2], 16.2 µM in the data set on Neutrophil [3], 7.7 µM with Neutrophil [4] and 24 µM in the data set on Neutrophil [7]. In data set [5], the viability at 1 h, 100 µM was greater than 98%.
For `O=c1cc(-c2cccc(O)c2)oc2cc(O)cc(O)c12`, the IC50 in the data set with Neutrophil [2] worked out at 65.4 µM; in the data set on Neutrophil [4] it was 15.8 µM; in the data set with Neutrophil [7] it was 10 µM. The “inhibition (INH)” value in the data set with Neutrophil [8] is less than 40%. In addition, the viability at 1 h, 100 µM in data set [5] is greater than 98%.
For the compound `O=c1cc(-c2ccccc2)oc2cc(O)ccc12` [7-HYDROXYFLAVONE], the “inhibition (INH)” value in the data set on Neutrophil [1] and in the data set on Neutrophil [8] was less than 40% in each case. Further, the half-inhibitory concentration (IC50) in the data set on Neutrophil [4] amounted to 33 µM. In data set [5], the viability at 1 h, 100 µM was greater than 98%.
As to `O=c1cc(-c2ccc(O)c(O)c2)oc2cc(O)ccc12`, the concentration for half-maximal inhibition (IC50) in the data set on Neutrophil [2] was determined as 5.2 µM; with Neutrophil [3], 3.7 µM; in the data set with Neutrophil [4], 14.7 µM; in the data set with Neutrophil [7], 13.5 µM. Moreover, the viability at 1 h, 100 µM in data set [5] was greater than 98%.
Take `O=c1cc(-c2ccc(O)cc2)oc2cccc(O)c12`: the “inhibition (INH)” value with Neutrophil [8] is given as less than 40%. For the same compound, the inhibition at 40 µM in the data set on Neutrophil [9] stood at 20%. The half-maximal inhibitory concentration (IC50) with Neutrophil [4] worked out at 67.8 µM; in the data set on Neutrophil [7], 18 µM. Moreover, the viability at 1 h, 100 µM in data set [5] was greater than 98%.
`COc1ccc(-c2cc(=O)c3c(O)cc(O)cc3o2)cc1` [ACACETIN]: the “inhibition (INH)” value with Neutrophil [1] is less than 40%. Also, the inhibition result with Neutrophil [6] and in the data set with Neutrophil [3] was “inactive” each time. Moreover, in the data set on Neutrophil [4], the half-inhibitory concentration (IC50) was determined as 7 µM. Moreover, the inhibition at 25 µM in the data set on Neutrophil [12] turned out to be 26.7%. Also, in data set [5], the viability at 1 h, 100 µM was greater than 98%.
Regarding `O=c1c(O)c(-c2ccc(O)c(O)c2)oc2cc(O)cc(O)c12` [QUERCETIN], the half-maximal inhibitory concentration (IC50) came to 0.7 µM in the data set on Neutrophil [2], 8 µM in the data set with Neutrophil [3], 11.3 µM in the data set on Neutrophil [4] and 26 µM in the data set on Neutrophil [7]. Besides, the viability at 1 h, 100 µM in data set [5] is greater than 98%.
Regarding `O=c1cc(-c2ccc(O)cc2)oc2cc(O)ccc12`, the “inhibition (INH)” value in the data set on Neutrophil [1] and in the data set with Neutrophil [8] was less than 40% throughout. Further, in the data set on Neutrophil [4], the IC50 stood at 26.9 µM. Moreover, the viability at 1 h, 100 µM in [5] is greater than 98%.
On to `O=C1CC(c2ccc(O)cc2)Oc2cc(O)cc(O)c21` (racemic), for which the “inhibition (INH)” value with Neutrophil [8] is on record as less than 40%. Also, the IC50 in the data set on Neutrophil [4] was 31 µM; with Neutrophil [7], 51.4 µM. For the same compound, the viability at 1 h, 100 µM in [5] was greater than 98%.
Regarding `COc1cc(-c2cc(=O)c3c(O)cc(O)cc3o2)ccc1O` [CHRYSOERIOL], the IC50 is 0.4 µM with Neutrophil [2], 8.6 µM in the data set with Neutrophil [3], 7.1 µM in the data set on Neutrophil [4] and 2.8 µM in the data set with Neutrophil [7].
Take `O=c1cc(-c2cccc(O)c2)oc2cc(O)ccc12`: the 50% inhibitory concentration (IC50) in the data set with Neutrophil [3] amounted to 79.6 µM; with Neutrophil [4], 34.8 µM; with Neutrophil [7] it was 37.4 µM. The viability at 1 h, 100 µM in [5] was greater than 98%.
As for `COc1ccc(-c2cc(=O)c3c(O)cc(O)cc3o2)cc1O` [DIOSMETIN], the IC50 was determined as 0.7 µM in the data set with Neutrophil [2], 10.3 µM in the data set with Neutrophil [3], 15 µM in the data set with Neutrophil [4] and 3.6 µM in the data set on Neutrophil [7].
Regarding `O=c1cc(-c2cccc(O)c2)oc2cccc(O)c12`, the “inhibition (INH)” value in the data set on Neutrophil [8] was less than 40%. Moreover, the inhibition at 40 µM in the data set on Neutrophil [9] is 20%. Moreover, the results for the IC50 with Neutrophil [4] and in the data set with Neutrophil [7] were 32 µM and 14.5 µM, respectively. Moreover, the viability at 1 h, 100 µM in data set [5] is greater than 98%.
